Measured values taken from patent US12084521B2, “TLR9 inhibitors to suppress inflammatory response to pathogens” (University Of Maryland, Baltimore, priority 2018, dated 2024).
“Also recorded” adds a separate entry of the source.

Tests used:
TLR9 signaling = assay: ODN 1668-induced cytokine mRNA expression in BMDM (quantitative real time PCR); assay type: cell-based, mouse; conditions: BMDM; for inhibition of TLR9 signaling (ODN 1668-induced cytokine mRNA, overall): peptide 10, 20 or 40 μM, ODN 1668 1 μM
Procedure: (§1) The cDNA obtained was amplified with gene-specific primers for mouse HPRT, TNFα, IL-10, IL-12-p40, or IL-6 and Fast SYBR Green™ master mix (Applied Biosystemsm) as previously described.
Mouse BMDMs were incubated in the presence of a 10, 20 or 40 μM decoy peptide for 30 minutes prior to stimulation with ODN 1668 (1 μM). […] Data represent the means±SEM of at least three independent experiments. The statistical significance of changes in cytokine mRNA was determined by a one-way ANOVA test; *p<0.001. Peptides 9R3 and 9R34 have overlapping sequences (see Table 1).
To investigate inhibition of TLR9 signaling by 9R34 analogues, the following work was performed. Mouse BMDMs were incubated in the presence of a 10, 20 or 40 μM decoy peptide for 30 minutes prior to stimulation with ODN 1668 (1 μM). Cytokine mRNA expression was measured 1 hour after ODN 1668 challenge and normalized to the expression of HPRT. See also Table 1. Data represent means±SEM of at least three independent experiments.

TLR7 signaling = assay: TNFα mRNA in BMDM stimulated with R848; assay type: cell-based, mouse; conditions: peptide 40 μM; R848 2.85 μM; 1 h
Procedure: as §1
CPDPs 9R34 and 9R11 were examined for inhibition of TLR1/2, TLR4, and TLR7 signaling. BMDMs were stimulated with Pam3C, E. coli LPS, or R848 and TNFαmRNA was measured 1 hour after stimulation. Mouse BMDM were treated with 40 μM of the indicated peptides for 30 minutes prior to stimulation with ODN 1668 (1 μM), E. coli LPS (0.1 μg/mL), R848 (2.85 μM), or P3C (0.33 μM). R848 and P3C were used to specifically activate TLR7 and TLR2 signaling, respectively. TNFαmRNA expression was measured 1 h after ODN 1668 challenge and normalized to the expression of HPRT. See results in FIG. 8A, FIG. 8B, and FIG. 8C. […] The statistical significance of changes was determined by a one-way ANOVA test; *p<0.01.

MyD88 TIR = target: T1, MyD88 TIR (Homo sapiens, UniProt Q99836); assay: FLIM/FRET binding of Cy3-labeled peptides to Cer-fused TIR in HeLa cells
T1 construct: expressed in transfected cells; host or cells: HeLa
Outline: (§2)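 HeLa cells transiently expressing Cerulean-fused TIR domains were exposed to Cy3-labeled peptides at various concentrations for 1 h, then fixed. Donor lifetimes came from FLIM with single/bi-exponential fits, and FRET efficiency was calculated as E=1−τDA/τD from whole-image average lifetimes.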

TIRAP TIR = target: T2, TIRAP TIR (Homo sapiens, UniProt P58753); assay: as above
T2 construct: fused with TLR9 TIR or TIRAP TIR; expressed in transfected cells; host or cells: HeLa
Outline: as §2

TLR9 TIR = target: T3, TLR9 TIR (Homo sapiens, UniProt Q9NR96); assay: as above
T3 construct: expressed in transfected cells; host or cells: HeLa
T3 sequence (Q9NR96 868-1013 limits assumed): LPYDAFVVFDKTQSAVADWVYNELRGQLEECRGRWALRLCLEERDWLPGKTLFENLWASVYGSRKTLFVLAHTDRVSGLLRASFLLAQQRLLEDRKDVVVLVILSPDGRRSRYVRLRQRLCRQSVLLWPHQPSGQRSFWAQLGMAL
Outline: as §2

[1] = peptide 10, 20 or 40 μM 30 min before ODN 1668 (1 μM), 1 hour, normalized to HPRT

T2 sequence (P58753 84-213 limits assumed): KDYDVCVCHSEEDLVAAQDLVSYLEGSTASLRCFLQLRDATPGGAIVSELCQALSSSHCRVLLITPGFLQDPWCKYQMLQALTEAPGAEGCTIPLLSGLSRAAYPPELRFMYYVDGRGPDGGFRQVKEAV
T1 sequence (Q99836 159-293 limits assumed): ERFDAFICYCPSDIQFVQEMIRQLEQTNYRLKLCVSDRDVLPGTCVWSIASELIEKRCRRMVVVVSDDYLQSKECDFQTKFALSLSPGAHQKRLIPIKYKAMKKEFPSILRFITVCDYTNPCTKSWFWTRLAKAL

Sequence | TNFα mRNA expression (TLR9 signaling; peptide 10, 20 or 40 μM 30 min before ODN 1668 (1 μM), 1 hour after stimulation, normalized to HPRT) | IL-10 mRNA expression (TLR9 signaling; [1]) | IL-12-p40 mRNA expression (TLR9 signaling; [1]) | inhibition of TLR9 signaling (ODN 1668-induced cytokine mRNA, overall) (TLR9 signaling) | signaling induced by TLR7 agonist (TNFα mRNA) (TLR7 signaling) | interaction with MyD88 TIR (FLIM summary) (MyD88 TIR) | binding to TIRAP TIR (FLIM summary) (TIRAP TIR) | binding to TLR9 TIR (FLIM summary) (TLR9 TIR)
RSFWAQLGMALTRD (Synthetic peptide 9R11) | significantly suppressed | significantly suppressed | significantly suppressed | inhibit TLR9 signaling | did not inhibit | interacted with the MyD88 TIR, but with a lower affinity | bind | bind
ALRLCLEERD [Peptide 9R34-ΔN] | – | – | – | as potent as the parent peptide; also recorded: inhibited TLR9 signaling more potently than 9R3 | – | did not interact | bind | bind
